Patent US7799758B2, “Peptides and peptide derivatives as well as pharmaceutical compositions containing the same” (priority 2006, dated 2010)
No end group written: not given here.

System: mouse-adapted Dengue virus (DEN-2, strain P23085)
Experiment: model of Dengue virus infection in mice
Assay type: in vivo
Details: BALB/c mice infected s.c. with DEN-2 at 1-2 LD50, 4.8 mg/kg/day i.m. once a day for 5 days from day 3, read at day 10, p < 0.05
Experimental: A further possibility for establishing the biological effect in vivo is the reduction or complete suppression of mortality because of an infection with haemolytic viruses or bacteria. For this purpose, mice are, as described in Example 8, for instance infected with a dose of Dengue viruses, wherein 50% of the animals die within a period of 5-20 days after infection. The inventive compounds bring about a reduction of this mortality at a dose ranging from 0.001 to 500 mg/kg body weight, preferably at a dose ranging from […] body weight.
The biological effect of the compound of Example 3 was established in a model of Dengue virus infection in mice. 5-week-old male BALB/c mice were divided into 2 groups. All animals were infected subcutaneously with a mouse-adapted Dengue virus (DEN-2, strain P23085 at a dose of 1-2 LD50. 15 mice received 0.1 ml of 0.8% saline as intramuscular injection (control). The treated animals received 4.8 mg/kg/day of the agent of Example 3 as an intramuscular injection (diluted in 0.1 ml of 0.8% saline) once a day for 5 days, starting on day 3 after the virus infection.
At the end of the treatment period (day 10) the survival rates were compared.

With “Gly-His-Arg-Pro-Leu-Asp-Lys-Lys-Arg-Glu-Glu-Ala-Pro-Ser-Leu-Arg-Pro-Ala-Pro-Pro-Pro-Ile-Ser-Gly-Gly-Gly-Tyr-Arg-Cys-(S-succinimido-PEG20K)-amide (GHRPLDKKREEAPSLRPAPPPISGGGYRC(succinimido‑PEG20K)-NH2) [Example 3]” the “Mortality Percentage” value was 0% and the Mortality (dead/total animals) was 0/10.
